Test results published in patent US6780996B2, “Process for the preparation of 7-substituted-3 quinolinecarbonitriles” (Wyeth Holdings Corporation, priority 2002, dated 2004).

| Structure (SMILES) | melting point |
| --- | --- |
| COc1cc2c(Nc3ccc(C)cc3C)c(C#N)cnc2cc1OCCCC1CCN(C)CC1 [Example 49, 4-[(2,4-Dimethylphenyl)amino]-6-methoxy-7-[3(1-methylpiperidine-4-yl)propoxy]quinoline-3-carbonitrile] | 159 to 162 °C |
| COc1cc(Nc2c(C#N)cnc3cc(OCC4CCCCO4)c(OC)cc23)c(Cl)cc1Cl (stereo not shown) [Example 25, 4-[(2,4-Dichloro-5-methoxyphenyl)amino]-6-methoxy-7-(tetrahydro-2H-pyran-2-ylmethoxy)3-quinolinecarbonitrile] | 193 to 196 °C |
| COCCOc1ccc2c(Nc3ccc(Cl)cc3Cl)c(C#N)cnc2c1 [Example 34, 4-[(2,4-Dichlorophenyl)amino]-7-(2-methoxyethoxy)-3-quinolinecarbonitrile] | 144 to 145 °C |
| COc1ccc(C)c(Nc2c(C#N)cnc3cc(OCCCC4CCN(C)CC4)c(OC)cc23)c1 [Example 48, 6-Methoxy-4-[(5-methoxy-2-methylphenyl)amino]-7-[3-(1-methylpiperidine-4-yl)propoxy]quinoline-3-carbonitrile] | 163 to 166 °C |
| COc1cc(Nc2c(C#N)cnc3cc(Oc4ccncc4)c(OC)cc23)c(Cl)cc1Cl [Example 12, 4-[(2,4-Dichloro-5-methoxyphenyl)amino]-6-methoxy-7-(pyridin-4-yloxy)-3-quinolinecarbonitrile] | 267 to 269 °C |
| COCCOc1cc2c(Nc3cc(OC)c(Cl)cc3Cl)c(C#N)cnc2cc1OCC1CCN(C)CC1 [Example 22, 4-[(2,4-Dichloro-5-methoxyphenyl)amino]-6-[2-methoxyethoxy]-7-[(1-methylpiperidine-4-yl)methoxy]3-quinolinecarbonitrile] | 153 to 155 °C |
| COCCOc1ccc2c(Nc3cc(OC)c(Cl)cc3Cl)c(C#N)cnc2c1 [Example 33, 4-[(2,4-Dichloro-5-methoxyphenyl)amino]-7-(2-methoxyethoxy)-3-quinolinecarbonitrile] | 182 to 183 °C |
| COCCOc1cc2ncc(C#N)c(NC3CCCC3)c2cc1OC [Example 9, 4-Cyclopentylamino-6-methoxy-7-(2-methoxyethoxy)-3-quinolinecarbonitrile] | 87 to 90 °C |
| COCCOc1cc2ncc(C#N)c(Nc3cc(OC)c(C)cc3C)c2cc1OC [Example 37, 4-[(2,4-Dimethyl-5-methoxyphenyl)amino]-6-methoxy-7-(2-methoxyethoxy)quinoline-3-carbonitrile] | 143 to 145 °C |
| COc1cc(Nc2c(C#N)cnc3cc(OCC(C)(C)CN(C)C)c(OC)cc23)c(Cl)cc1Cl [Example 2, 4-[(2,4-Dichloro-5-methoxyphenyl)amino]-7-(3-dimethylamino-2,2-dimethylpropoxy)-6-methoxy-3-quinolinecarbonitrile] | 178 to 180 °C |
| COCCOc1cc2ncc(C#N)c(Nc3cc(OC)c(OC)c(OC)c3)c2cc1OC [Example 17, 6-Methoxy-7-[2-methoxyethoxy]-4-[(3,4,5-trimethoxyphenyl)amino]-3-quinolinecarbonitrile] | 188 to 190 °C |
| CCCCNc1c(C#N)cnc2cc(OCCOC)c(OC)cc12 [Example 10, 4-Butylamino-6-methoxy-7-(2-methoxyethoxy)-3-quinolinecarbonitrile] | 99 to 102 °C |
| COc1cc(Nc2c(C#N)cnc3cc(OCc4cccs4)c(OC)cc23)c(Cl)cc1Cl [Example 5, 4-[(2,4-Dichloro-5-methoxyphenyl)amino]-6-methoxy-7-(2-thienylmethoxy)-3-quinolinecarbonitrile] | 194 to 196 °C |
| COc1cc(Nc2c(C#N)cnc3cc(Sc4ccccc4)c(OC)cc23)c(Cl)cc1Cl [Example 8, 4-[(2,4-Dichloro-5-methoxyphenyl)amino]-6-methoxy-7-phenylsulfanyl-3-quinolinecarbonitrile] | 220 to 222 °C |
| CCOc1cc2c(Nc3cc(OC)c(Cl)cc3Cl)c(C#N)cnc2cc1OCCOC [Example 23, 4-[(2,4-Dichloro-5-methoxyphenyl)amino]-6-ethoxy-7-(2-methoxyethoxy)3-quinolinecarbonitrile] | 215 to 217 °C |
| COc1cc(Nc2c(C#N)cnc3cc(OCCCN4CCS(=O)(=O)CC4)c(OC)cc23)c(Cl)cc1Cl [Example 3, 4-[(2,4-Dichloro-5-methoxyphenyl)amino]-7-[3-(1,1-dioxido-4-thiomorpholinyl)propoxy]-6-methoxy-3-quinolinecarbonitrile] | 118 to 120 °C |
| COc1cc2c(Nc3ccc(Oc4cccnc4)cc3)c(C#N)cnc2cc1OCC1CCN(C)CC1 [Example 57, 6-Methoxy-7-(1-methyl-piperidin-4-ylmethoxy)-4-{[4-(pyridin-3-yloxy)-phenyl]amino}quinoline-3-carbonitrile] | 182 to 184 °C |

Second part, the compound after the results:

| melting point | Structure (SMILES) |
| --- | --- |
| 198 to 200 °C | COc1cc2c(Nc3ccc(Sc4nccn4C)c(Cl)c3)c(C#N)cnc2cc1NCCCN(C)C [Example 29, 4-[3-Chloro-4-(1-methyl-1H-imidazol-2-ylsulfanyl)-phenylamino]-7-{[3-(dimethyl)aminopropyl]amino}-6-methoxyquinoline-3-carbonitrile] |
| 165 to 167 °C | COc1cc(Nc2c(C#N)cnc3cc(NCCCN(C)C)c(OC)cc23)c(Cl)cc1Cl [Example 54, 4-[(2,4-Dichloro-5-methoxyphenyl)amino]-7-{[3-(dimethylamino)propyl]amino}-6-methoxyquinoline-3-carbonitrile] |
| 188 to 190 °C | CCN1CCN(CCCOc2cc3ncc(C#N)c(Nc4ccc(Sc5nccn5C)c(Cl)c4)c3cc2OCCOC)CC1 [Example 21, 4-({3-Chloro-4-[(1-methyl-1H-imidazol-2-yl)sulfanyl]phenyl}amino)-7-[3-(4-ethyl-1-piperazinyl)propoxy]-6-(2-methoxyethoxy)-3-quinolinecarbonitrile] |
| 116 to 117 °C | COc1cc(Nc2c(C#N)cnc3cc(N(C)CCCN(C)C)c(OC)cc23)c(Cl)cc1Cl [Example 55, 4-[(2,4-Dichloro-5-methoxyphenyl)amino]-7-{[3-(dimethylamino)propyl](methyl)amino]-6-methoxyquinoline-3-carbonitrile] |
| 270 to 272 °C | COc1cc2c(Nc3ccc(Sc4nccn4C)c(Cl)c3)c(C#N)cnc2cc1N1CCN(C)CC1 [Example 27, 4-[3-Chloro-4-(1-methyl-1H-imidazol-2-ylsulfanyl)-phenylamino]-6-methoxy-7-(4-methylpiperazin-1-yl)-quinoline-3-carbonitrile] |
| 196 to 201 °C | COc1cc2c(Nc3ccc(Sc4nccn4C)c(Cl)c3)c(C#N)cnc2cc1N(C)CCCN(C)C [Example 30, 4-[3-Chloro-4-(1-methyl-1H-imidazol-2-ylsulfanyl)-phenylamino]-7-{[3-(dimethylamino)propyl]-methylamino}-6-methoxyquinoline-3-carbonitrile] |
| 122 to 124 °C | COc1cc(Nc2c(C#N)cnc3cc(NCCCC4CCN(C)CC4)c(OC)cc23)c(Cl)cc1Cl [Example 28, 4-[(2,4-Dichloro-5-methoxyphenyl)amino]-6-methoxy-7-{[3-(1-methylpiperidin-4-yl)propyl]amino}quinoline-3-carbonitrile] |
| 179 to 181 °C | COCCOc1cc2ncc(C#N)c(Nc3cc(OC)ccc3Cl)c2cc1OC [Example 38, 4-[(2-Chloro-5-methoxyphenyl)amino]-6-methoxy-7-(2-methoxyethoxy)quinoline-3-carbonitrile] |
